One assay deals with KCNQ3/5. More on the design: method as in PMID 11159685. As to conditions: cited from earlier work.
For another assay, the system named is KCNQ2/3 channels. Set-up: method as in PMID 35459955. The conditions noted are these: cited from earlier work.
A further assay has as its target KCNQ3* (KCNQ3-A315T) (Homo sapiens, UniProt O43525, A315T). The assay is described as follows: TEVC of KCNQ3* homomers expressed in Xenopus laevis oocytes. Type of assay: cell-based. The conditions noted are these: 100 µM.
The subject of assay [1] is voltage-gated calcium channel, Cav3.2. Set-up: method as in PMID 29073181. As to conditions: cited from earlier work.

Molecules are shown by their SMILES.

Chain of KCNQ3* (KCNQ3-A315T) (O43525 whole entry A315T): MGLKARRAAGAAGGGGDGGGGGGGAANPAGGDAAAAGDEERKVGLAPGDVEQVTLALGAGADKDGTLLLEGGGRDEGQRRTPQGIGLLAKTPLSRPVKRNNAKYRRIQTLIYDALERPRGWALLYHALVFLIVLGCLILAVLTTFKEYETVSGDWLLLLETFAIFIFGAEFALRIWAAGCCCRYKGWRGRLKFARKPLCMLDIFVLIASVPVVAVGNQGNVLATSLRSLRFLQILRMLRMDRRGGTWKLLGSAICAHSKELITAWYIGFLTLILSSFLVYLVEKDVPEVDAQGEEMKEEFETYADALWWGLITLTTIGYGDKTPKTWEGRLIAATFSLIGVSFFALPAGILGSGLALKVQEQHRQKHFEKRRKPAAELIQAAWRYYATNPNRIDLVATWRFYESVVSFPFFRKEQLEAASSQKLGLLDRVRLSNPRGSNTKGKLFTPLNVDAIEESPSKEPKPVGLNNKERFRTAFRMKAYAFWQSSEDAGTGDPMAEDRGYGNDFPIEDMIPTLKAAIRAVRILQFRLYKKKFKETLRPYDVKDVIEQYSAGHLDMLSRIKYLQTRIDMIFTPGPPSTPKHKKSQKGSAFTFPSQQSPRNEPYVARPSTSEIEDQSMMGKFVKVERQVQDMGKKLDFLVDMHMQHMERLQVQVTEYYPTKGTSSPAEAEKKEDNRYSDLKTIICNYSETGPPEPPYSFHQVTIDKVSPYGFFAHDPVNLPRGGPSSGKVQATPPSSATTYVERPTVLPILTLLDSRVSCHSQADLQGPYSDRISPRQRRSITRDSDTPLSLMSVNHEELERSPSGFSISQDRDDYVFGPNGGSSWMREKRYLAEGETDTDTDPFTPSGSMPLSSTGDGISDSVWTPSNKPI
Excerpt for KCNQ3* (KCNQ3-A315T): We generated cRNA transcripts encoding human KCNQ1, 2, 3, and 5 (wild-type and mutant) by in vitro transcription using the mMessage mMachine kit (Thermo Fisher Scientific, Waltham, MA, USA) according to manufacturer’s instructions, after vector linearization, from cDNA sub-cloned into expression vectors (pTLNx and pXOOM) incorporating Xenopus laevis β-globin 5’ and 3’ UTRs flanking the coding region to enhance translation and cRNA stability. Mutant KCNQ cDNAs were generated by Genscript (Piscataway, NJ, USA) and cRNAs made as above. We injected defolliculated stage V and VI Xenopus laevis oocytes (Xenoocyte, Dexter, MI, USA) with KCNQ cRNAs (2–10 ng) and incubated the oocytes at 16 °C in ND96 oocyte storage solution containing penicillin and streptomycin, with daily washing, for 2–4 days prior to two-electrode voltage-clamp (TEVC) recording.
We placed oocytes in a small-volume oocyte bath (Warner) and viewed them with a dissection microscope for cellular electrophysiology. We sourced chemicals from Sigma-Aldrich (St. Louis, MO, USA) and Combi-Blocks (San Diego, CA, USA). We studied effects of Salvia rosmarinus extracts and of compounds, solubilized directly in bath solution (in mM): 96 NaCl, 4 KCl, 1 MgCl2, 1 CaCl2, 10 HEPES (pH 7.6). We introduced extracts or compounds into the oocyte recording bath by gravity perfusion at a constant flow of 1 ml per minute for 3 min prior to recording. Pipettes were of 1-2 MΩ resistance when filled with 3 M KCl. […] We analyzed data using Clampfit (Molecular Devices) and Graphpad Prism software (GraphPad, San Diego, CA, USA), stating values as mean ± SEM. We plotted raw or normalized tail currents versus prepulse voltage and fitted with a single Boltzmann function:1 g=(A1−A2)/1+exp[V1/2−V/Vs]y+A2 where g is the normalized tail conductance, A1 is the initial value at -∞, A2 is the final value at +∞, V1/2 is the half-maximal voltage of activation and Vs the slope factor. We fitted activation and deactivation kinetics with single exponential functions.

As a reminder, the EC50 is the concentration that produces a half-maximal response. On to `CCOC(=O)Nc1ccc(NCc2ccc(F)cc2)cc1N` [retigabine], for which the “shift in V0.5 of KCNQ3/5 activation” value with KCNQ3/5 (30 µM) is on record as −31.8 mV. For the same compound, in the assay with KCNQ3/5, the EC50 is 1.4 µM.

In the case of `Oc1cc(Cl)ccc1Oc1ccc(Cl)cc1Cl` [triclosan], in the assay on KCNQ2/3 channels, the EC50 was 32 µM.

One may read the IC50 as the concentration needed to halve the response being measured. As to `O=C(/C=C/c1ccc(O)c(O)c1)O[C@H](Cc1ccc(O)c(O)c1)C(=O)O` [Rosmarinic acid], on KCNQ3* (KCNQ3-A315T), the Slope was 4.36 ± 0.60 mV, the “V0.5 Normalized tail current” value is listed as -49.64 ± 0.84 mV and the “V0.5 non-normalized tail current” value is listed as -50.09 ± 3.47 mV. Also, the IC50 in assay [1] was 49.9 µM.

Values taken from paper PMC10272180, “Ancient medicinal plant rosemary contains a highly efficacious and isoform-selective KCNQ potassium channel opener” (Communications Biology, 2023).
